The source of these data is US20240059698A1 (Accutar Biotechnology Inc., priority 2022, published 2024).

Structures are written as SMILES. Like-named read-outs stand apart in the source and are kept apart here.

Common to all, as to assay type: cell-based
The subject of one assay is HCC827 cells. Description: Cell growth inhibition (CellTiter-Glo), HCC827. The note with it: Homo sapiens, 72 h, 3 days. In outline: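 HCC827 cells in RPMI and A431 cells in DMEM (both 10% FBS) were seeded at 5000 cells/well and left overnight. They were then exposed to compound dilutions for 3 days at 37° C. Viability was read by CellTiter-Glo luminescence.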
The test system of assay [1] is HCC827-SVD cells (human EGFR exon 20 insertion mutant D770_N771insSVD). As to the kind of experiment: Cell growth inhibition (CellTiter-Glo), HCC827-SVD. The note with it: 72 h, 3 days. In outline: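 HCC827 cells with endogenous EGFR knocked out and lentivirally expressing the insertion mutant (single clone) were seeded at 5000 cells/well in RPMI with 10% FBS. After overnight, compounds added; 3 days at 37 °C, then CellTiter-Glo luminescence.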

Assay [2] has as its system HCC827-YVMA cells (human ERBB2 exon20 insertion mutant A775_G776ins YVMA). As to the kind of experiment: Cell growth inhibition (CellTiter-Glo), HCC827-YVMA. To be noted: 72 h, read-out: Cell growth inhibition, GI50 (nM) HCC827-YVMA. In outline: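 HCC827 cells transduced with lentiviral codon-optimized mutant (ERBB2 A775_G776insYVMA or EGFR V769_D770insASV), endogenous EGFR knocked out by CRISPR, single clone selected. Cells seeded overnight in RPMI/10% FBS, then exposed to serially diluted compounds at 37 °C for 3 days; viability read by CellTiter-Glo luminescence.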

The next assay concerns A431 cells. Description: Cell growth inhibition (CellTiter-Glo), A431. To be noted: Homo sapiens, A-431, 72 h, 3 days. As for the experimental part:
2. Cell Growth Inhibition for HCC827, HCC827-SVD, HCC827-ASV, HCC827-YVMA, and A431.
HCC827(ATCC), HCC827-SVD, HCC827-ASV, and HCC827-YVMA cells were seeded in 96-well plates at 5000 cells/well in 90 μL of RPMI growth medium containing 10% FBS and 1% Penicillin Streptomycin. A431 (ATCC) cells were seeded in 96-well plates at 5000 cells/well in 90 μL of DMEM growth medium containing 10% FBS and 1% Penicillin Streptomycin. Cells were incubated at 37° C. overnight and then administered with 10 μL 10× test compounds prepared in the growth medium at various concentrations. After administration of the compounds, cells were incubated at 37° C. for 3 days. Before the CellTiter-Glo assay, the plates were equilibrated at room temperature for approximately 30 minutes. 100 ul of CellTiter-Glo reagent (Promega) was added to each well. The plates were then incubated at room temperature for 10 minutes and luminescence was recorded by the EnSight® multimode plate reader (PerkinElmer). Table 7 listed selected compounds in cellular growth assay.

Setting [3] is: HCC827-YVMA cells, 3 days, CellTiter-Glo.

For orientation: GI50 means the concentration that inhibits growth by half.

As for `C=CC(=O)N1CCC(c2c[nH]c3ncnc(Nc4ccc(OCc5nccs5)c(Cl)c4)c23)CC1` [Compound 153, 1-(4-(4-((3-chloro-4-(thiazol-2-ylmethoxy)phenyl)amino)-7H-pyrrolo[2,3-d]pyrimidin-5-yl)piperidin-1-yl)prop-2-en-1-one], the GI50 (in the assay with HCC827 cells; in assay [1]; in assay [2] (setting [3]); in the assay on A431 cells) was below 50 nM each time.
`C=CC(=O)N1CCN(c2n[nH]c3ncnc(Nc4ccc(OCc5ccccn5)c(Cl)c4)c23)CC1` [Compound 163, 1-(4-(4-((3-chloro-4-(pyridin-2-ylmethoxy)phenyl)amino)-1H-pyrazolo[3,4-d]pyrimidin-3-yl)piperazin-1-yl)prop-2-en-1-one]: the GI50 with HCC827 cells was below 50 nM; in assay [1] it was below 50 nM; in assay [2] (setting [3]) it was below 50 nM; in the assay with A431 cells, above 1000 nM.
On to `C=CC(=O)N1CCC(c2n[nH]c3ncnc(Nc4ccc(O[C@H]5CCCN(S(=O)(=O)c6ccccc6)C5)cc4F)c23)CC1` [Compound 165, (S)-1-(4-(4-((2-fluoro-4-((1-(phenylsulfonyl)piperidin-3-yl)oxy)phenyl)amino)-1H-pyrazolo[3,4-d]pyrimidin-3-yl)piperidin-1-yl)prop-2-en-1-one], for which the GI50 with HCC827 cells is 200 to 1000 nM; in assay [1], 50 to 200 nM; in assay [2] (setting [3]), 50 to 200 nM; in the assay on A431 cells, above 1000 nM.
Regarding `C=CC(=O)N1CC(Nc2n[nH]c3ncnc(Nc4ccc(OCc5ccccn5)c(Cl)c4)c23)C1` [Compound 168, 1-(3-((4-((3-chloro-4-(pyridin-2-ylmethoxy)phenyl)amino)-1H-pyrazolo[3,4-d]pyrimidin-3-yl)amino)azetidin-1-yl)prop-2-en-1-one], the GI50 with HCC827 cells is 200 to 1000 nM; in assay [1], above 1000 nM; in assay [2] (setting [3]), above 1000 nM; in the assay with A431 cells it was above 1000 nM.
`C=CC(=O)N1CCC(Nc2n[nH]c3ncnc(Nc4ccc(OCc5ccccn5)c(Cl)c4)c23)CC1` [Compound 169, 1-(4-((4-((3-chloro-4-(pyridin-2-ylmethoxy)phenyl)amino)-1H-pyrazolo[3,4-d]pyrimidin-3-yl)amino)piperidin-1-yl)prop-2-en-1-one]: the GI50 (with HCC827 cells; in assay [1]; in assay [2] (setting [3]); with A431 cells) was above 1000 nM throughout.
As for `C=CC(=O)N1CCC(c2n[nH]c3ncnc(Nc4ccc(Oc5ccnc(-c6csc(C)n6)c5)cc4F)c23)CC1` [Compound 171, 1-(4-(4-((2-fluoro-4-((2-(2-methylthiazol-4-yl)pyridin-4-yl)oxy)phenyl)amino)-1H-pyrazolo[3,4-d]pyrimidin-3-yl)piperidin-1-yl)prop-2-en-1-one], the GI50 with HCC827 cells was 200 to 1000 nM; in assay [1], 50 to 200 nM; in assay [2] it was below 50 nM; in the assay with A431 cells, above 1000 nM.
Consider `C=CC(=O)N1CCC(c2n[nH]c3ncnc(Nc4ccc(Oc5ccnc(N6CCO[C@H](C)C6)c5)cc4F)c23)CC1` [Compound 172, (R)-1-(4-(4-((2-fluoro-4-((2-(2-methylmorpholino)pyridin-4-yl)oxy)phenyl)amino)-1H-pyrazolo[3,4-d]pyrimidin-3-yl)piperidin-1-yl)prop-2-en-1-one], for which the GI50 with HCC827 cells is 200 to 1000 nM; in assay [1], 50 to 200 nM; in assay [2] (setting [3]), 50 to 200 nM; in the assay with A431 cells, above 1000 nM.
On to `C=CC(=O)N1CCC(c2n[nH]c3ncnc(Nc4ccc(Oc5ccnc(NC6CCOCC6)c5)cc4F)c23)CC1` [Compound 174, 1-(4-(4-((2-fluoro-4-((2-((tetrahydro-2H-pyran-4-yl)amino)pyridin-4-yl)oxy)phenyl)amino)-1H-pyrazolo[3,4-d]pyrimidin-3-yl)piperidin-1-yl)prop-2-en-1-one], for which the GI50 was above 1000 nM in the assay with HCC827 cells, 200 to 1000 nM in assay [1], 200 to 1000 nM in assay [2] (setting [3]) and above 1000 nM in the assay on A431 cells.
